Laboratory results taken from patent US11213507B2, “MRSA biofilm inhibition” (University of South Florida, priority 2016, dated 2022).
In brackets after ≈: the same amount, converted by molar mass.

What was measured:
[1] = test system: methicillin-resistant Staphylococcus aureus (MRSA) CBD-635; format: cell-based
From the text: (§1) Spongian diterpenes are well known as bioactive natural products. Darwinolide was screened for activity against a clinical strain of a highly resistant Staphylococcus aureus (MRSA). […] The remaining colony was subjected to a cell recovery experiment overnight after washout of darwinolide. […] Based on the 4-fold selectivity of darwinolide for MRSA biofilms over planktonic cells, and its low mammalian cytotoxicity, darwinolide presents a highly suitable scaffold for the development of urgently needed, novel anti-biofilm-specific antibiotics.
(§2) A clinical, multi-drug resistant strain of MRSA (CBD-635) was used in these studies for minimum inhibitory concentration (MIC) determination and assessment of anti-biofilm properties, all as described previously (Fleeman et al., J. Med. Chem. 2015, 58, 3340-3355).

[2] = test system: methicillin-resistant Staphylococcus aureus (MRSA) CBD-635; assay: Broth dilution MIC assay against clinical MRSA strain; format: cell-based
From the text: as §1, §2

[3] = test system: MRSA biofilm (CBD-635); assay: In vitro MRSA biofilm assay; format: cell-based, Staphylococcus aureus
From the text: as §1, §2

[4] = Cytotoxicity assay (MTS, 72 h) in J774 macrophage cell line; format: cell-based; details: mouse, J774.A-1 macrophage cell line
From the text: as §1
The J774.A-1 cell line was used for cytotoxicity screening via a colorometric method employing a tetrazolium derivative [3-(4,5-dimethylthiazol-2-yl)-5-(3-carboxymethoxyphenyl)-2-(4-sulfophenyl)-2H-tetrazolium] (MTS) 72 h assay using 50000 […] per well, and an electron-coupling reagent, and penazine methosulphate (PMS) were used in the assay. IC50 values were calculated from sigmoidal inhibition curves using SigmaPlot 11.0 software (von Salm et al., J. Org. Lett. 2014, 16, 2630-2633).

With `CC(=O)O[C@@H]1O[C@H]2OC(=O)C3=C(C)[C@@H]([C@@]4(C)CCCC(C)(C)C4)CC[C@@H]1[C@H]32` [darwinolide] the “cytotoxic or cytostatic toward S. aureus” value ([1]; conclusion from cell recovery experiment) was “cytotoxic, rather than cytostatic”, the “treated bacterium able to recover and grow” value ([1]; overnight recovery after washout of darwinolide, colony remaining from MIC assay) was 1.6% and the MIC [2] was 133 µM (≈ 50 µg/mL). For the same molecule, the IC50 ([3]; Staphylococcus aureus, biofilm established in vitro with same MRSA strain, read-out: IC50 against the biofilm) was 33.2 µM, the “selectivity for MRSA biofilms over planktonic cells” value ([3]; biofilm IC50 vs planktonic MIC) was 4 fold and the IC50 at 72 h [4] was 73.4 µM.
